Patent US7776566B2, “Method for producing purine nucleoside by fermentation” (priority 1997, dated 2010)

Legend:
Format in all cases: biochemical, E. coli
[1] = molecular target: T1, PRPP synthetase (Prs) D128A (Escherichia coli, UniProt P0A717, D129A); assay: PRPP synthetase activity of crude enzyme extracts and inhibition by ADP (mutant prsDA); details: mutant type
T1 construct: made in house; host or cells: E. coli JM109 (crude enzyme extract)
Protocol: A prs fragment was excised from the plasmid carrying the prs of about 1 kb cloned in Section 1) by SalI and SphI digestion, and inserted between the SalI and SphI sites of the multi-cloning site of a plasmid for introducing mutation, pKF19k (Takara Shuzo) to obtain the target clone (pKFprs). […] It is also described that the enzyme whose Asp (D) at position 128 is mutated to Ala (A) is partially desensitized. Therefore, the following synthetic DNA primer was prepared for gene substitution realizing mutation of Asp (D) at position 128 PRPP synthetase (Prs) to Ala (A), and pKFprs was subjected to site-directed mutagenesis according to the protocol of Site-directed Mutagenesis System Mutan-Super Express Km (Takara Shuzo) to introduce a site-directed mutation into the pKFprs. […]
Recombinant bacteria obtained by transforming E. coli JM109 cells with the above four plasmids were cultured in LB liquid medium for eight hours, and collected, and crude enzyme extracts were prepared from them. The PRPP synthetase activity of the extracts and degrees of inhibition by ADP were measured according to the method of K. F. Jensen et al. (Analytical Biochemistry, 98, 254-263 (1979)) which was partially modified. Specifically, [a-^32P]ATP was used as the substrate and [^32P]AMP produced by the reaction was measured.

[2] = molecular target: T2, PRPP amidotransferase (PurF), wild type (Escherichia coli, UniProt P0AG16); assay: PRPP amidotransferase activity of crude enzyme extracts and inhibition by AMP and GMP (wild type purF, pKFpurF); details: JM109/pKFpurF crude extract, activity with None 0.68
T2 construct: made in house; host or cells: E. coli JM109 (crude enzyme extract)
Protocol: (§1) Recombinant bacteria obtained by transforming E. coli JM109 cells with the above plasmids were cultured in LB liquid medium for eight hours, and collected, and crude enzyme extracts were prepared from them. The PRPP amidotransferase activity of the extracts and degrees of inhibition by AMP and GMP were measured according to the method of L. J. Messenger (J. Biol. Chem., 254, 3382 (1979)).

[3] = molecular target: T3, PRPP amidotransferase (PurF) K326Q (Escherichia coli, UniProt P0AG16, K327Q); assay: PRPP amidotransferase activity of crude enzyme extracts and inhibition by AMP and GMP (mutant purF, pKFpurFKQ); details: JM109/pKFpurFKQ crude extract, activity with None 0.34
T3 construct: made in house; host or cells: E. coli JM109 (crude enzyme extract)
Protocol: (§2) A purF fragment was excised from the plasmid carrying the purF of about 1530 bp cloned into pCRTMII vector (Invitrogen) in Section 1) by digestion with PstI and HindIII, and inserted between the PstI and HindIII sites of the multi-cloning site of a plasmid for introducing mutation, pKF18 (Takara Shuzo) to obtain the target clone (pKFpurF). […] Therefore, the following synthetic DNA primers were prepared for gene substitution realizing mutations of Lys (K) at position 326 and Pro (P) at position 410 of PRPP amidotransferase (PurF) to Gln (Q) and Trp (W), respectively, and pKFpurF was subjected to site-directed mutagenesis according to the protocol of Site-directed Mutagenesis System Mutan-Super Express Km (Takara Shuzo) to introduce a site-directed mutation into the pKFpurF.
(§3) After the mutagenesis, 6 clones were randomly picked up from each of the resulting transformants, and plasmids were prepared from them. […]
as §1

[4] = molecular target: T4, PRPP amidotransferase (PurF) K326Q + P410W (Escherichia coli, UniProt P0AG16, K327Q/P411W); assay: PRPP amidotransferase activity of crude enzyme extracts and inhibition by AMP and GMP (mutant purF, pKFpurFKQPW); details: JM109/pKFpurFKQPW crude extract, activity with None 0.18
T4 construct: made in house; host or cells: E. coli JM109 (crude enzyme extract)
Protocol: as §2, §3, §1

T4 sequence (P0AG16 2-505 K327Q/P411W): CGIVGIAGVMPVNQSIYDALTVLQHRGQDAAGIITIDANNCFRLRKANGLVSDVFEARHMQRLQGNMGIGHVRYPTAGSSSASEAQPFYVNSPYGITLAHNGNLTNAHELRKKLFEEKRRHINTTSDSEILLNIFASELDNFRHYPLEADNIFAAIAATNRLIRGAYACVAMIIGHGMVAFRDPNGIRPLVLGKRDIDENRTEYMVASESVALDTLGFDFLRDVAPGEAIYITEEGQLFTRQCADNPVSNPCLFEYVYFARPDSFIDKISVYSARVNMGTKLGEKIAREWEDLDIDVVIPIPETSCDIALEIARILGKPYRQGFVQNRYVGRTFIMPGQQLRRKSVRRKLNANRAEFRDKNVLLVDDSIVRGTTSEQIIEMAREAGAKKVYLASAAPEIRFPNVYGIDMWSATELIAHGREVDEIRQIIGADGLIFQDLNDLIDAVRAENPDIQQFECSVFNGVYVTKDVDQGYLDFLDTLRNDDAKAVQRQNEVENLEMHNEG
T3 sequence (P0AG16 2-505 K327Q): as the sequence (P0AG16 2-505 K327Q/P411W) above, with W410P counted along it
T2 sequence (P0AG16 2-505): as the sequence (P0AG16 2-505 K327Q/P411W) above, with Q326K, W410P counted along it

How did the “PRPP synthetase (Prs) specific activity, 5 mM ADP” value ([1]; JM109/pSTVprsDA, medium copy, activity with None 10.6) turn out when Nc1ncnc2c1ncn2[C@@H]1O[C@H](COP(=O)(O)OP(=O)(O)O)[C@@H](O)[C@H]1O [ADP, adenosine diphosphate] was run?
The value was 2.7 nmole/min/mg crude enzyme extract.

What about the “PRPP synthetase (Prs) specific activity, 5 mM ADP” value ([1]; JM109/pUCprsDA, high copy, activity with None 80.8) of the same compound?
Its value is 20.2 nmole/min/mg crude enzyme extract.

Which results are given for Nc1ncnc2c1ncn2[C@@H]1O[C@H](COP(=O)(O)O)[C@@H](O)[C@H]1O [AMP, adenosine monophosphate]?
PRPP amidotransferase activity, 10 mM AMP ([2]; 10 mM AMP): 0.48 µmol/min/mg; PRPP amidotransferase activity, 10 mM AMP ([3]; 10 mM AMP): 0.32 µmol/min/mg; PRPP amidotransferase activity, 10 mM AMP ([4]; 10 mM AMP): 0.16 µmol/min/mg

What does the source list for Nc1nc2c(ncn2[C@@H]2O[C@H](COP(=O)(O)O)[C@@H](O)[C@H]2O)c(=O)[nH]1 [GMP, guanosine monophosphate]?
PRPP amidotransferase activity, 10 mM GMP ([2]; 10 mM GMP): 0.10 µmol/min/mg; PRPP amidotransferase activity, 10 mM GMP ([3]; 10 mM GMP): 0.33 µmol/min/mg; PRPP amidotransferase activity, 10 mM GMP ([4]; 10 mM GMP): 0.17 µmol/min/mg
